Among the data in patent US20230271949A1, “GLP-1R MODULATING COMPOUNDS” (ASCLETIS BIOSCIENCE CO., LTD., priority 2022, published 2023) are EC50 values, retold here.

Chain of GLP-1R (P43220 24-463): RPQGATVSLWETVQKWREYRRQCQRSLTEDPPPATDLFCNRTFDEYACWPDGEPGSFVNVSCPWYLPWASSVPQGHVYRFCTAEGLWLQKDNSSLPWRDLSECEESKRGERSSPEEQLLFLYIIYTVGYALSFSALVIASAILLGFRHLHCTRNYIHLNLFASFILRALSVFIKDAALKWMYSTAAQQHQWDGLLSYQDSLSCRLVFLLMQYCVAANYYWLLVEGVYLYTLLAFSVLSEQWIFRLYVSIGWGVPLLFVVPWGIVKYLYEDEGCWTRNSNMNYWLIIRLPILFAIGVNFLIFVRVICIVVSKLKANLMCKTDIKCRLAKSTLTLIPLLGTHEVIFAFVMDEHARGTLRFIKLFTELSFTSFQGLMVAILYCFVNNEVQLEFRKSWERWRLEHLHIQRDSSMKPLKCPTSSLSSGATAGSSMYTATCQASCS

In the assay the target is GLP-1R (Homo sapiens, UniProt P43220). Put plainly: GLP-1R agonist cAMP stimulation assay (HTRF cAMP). It is filed as cell-based. Conditions: HEK293 cell line expressing GLP-1 target; HTRF cAMP agonist mode, 30 min at RT. On the procedure:
cAMP Detection Kit, Cisbio (Cat #62AM4PEJ)
The cell line was constructed by WuXi.
2. Methods • a) The compound source plate preparation: • The reference 7-37 was diluted from 500 nM, 4-fold, 10 points in DMSO using Bravo. The compounds were diluted from […], 3-fold, 10 points in DMSO using Bravo. • b) Transfer of compounds: • 1) Use Echo transfer 100 nL cpd to the OptiPlate-384 plate. • 2) Spin the plates at 1000 rpm for 5 sec. • c) Cell suspension preparation: • 1) Thaw 1 vial of GLP-1 cells rapidly in 37° C. water bath. • 2) Transfer cell suspension into 10 ml of HBSS in a 15 ml conical tube. • 3) Centrifuge cells at 1000 rpm for 5 min at room temperature to pellet cells • 4) Gently aspirate supernatant being careful not to aspirate cells. • 5) Flick pellet to loose cells and re-suspend the cell pellet in 10 ml HBSS. Use a sterile pipette to pipette up and down to dislodge clumps. • 6) Count cells for concentration and to determine cell viability on Vi-cell. • 7) Re-suspend the GLP-1 cells in assay buffer at a concentration of 1.0×E5/mL cells. • 8) Transfer 10 μL GLP-1 cells to OptiPlate-384 plate. • d) HTRF cAMP Assay for agonist: • 1) Incubate the plate at RT for 30 min before adding the detection reagent. • 2) Add 10 μL each of detection reagent using Electric Multiple Channel Pipette. • 3) Cover the 384 plate with TopSeal-A film and incubate for 60 minutes at room temperature. • Remove the TopSeal-A, read on EnVision.
Create a new log (Inhibitor) vs response—Variable slope mode in Prism5.0 software, substitute the standard curve concentration (x) and its corresponding 665/615 data (y) into the model, convert the standard curve concentration (abscissa) by x=log(x), and make the standard curve through the converted xy.
Transform the data of 665/615 in the whole plate into a column of data, substitute it into y in the table of standard curve concentration (x) and 665/615 data (y), copy the x (interpolatedx) corresponding to automatic conversion by the software into a table, convert it into cAMP level by the formula x=10^(x), and reset the data into 384 distribution.
% Activity=(cAMP level−LC)/(HC−LC)*100% • Z factor: 1-3*(STD_HC+[…])/(HC-LC) • Assay Window: HC/LC • LC: The average cAMP level of adding DMSO wells • HC: The average cAMP level of adding the top concentration of reference compounds wells.
Create a new […] in Prism5.0 software, substitute the sample concentration (x) and its corresponding % Activity data (y) into the model, convert the standard curve concentration (abscissa) to x=log(x), and make the sample curve through the converted xy.
`Cc1n[nH]c2ncc(NC(=O)c3ccc4c(c3)nc(CN3CCC(c5cccc(OCc6ccc(Cl)cc6F)n5)CC3)n4C[C@@H]3CCO3)cc12` [Compound 79] returned an EC50 of 76.5 nM. As to `COc1n[nH]c2ccc(NC(=O)c3ccc4c(c3)nc(CN3CCC(c5cccc(OCc6ccc(Cl)cc6F)n5)CC3)n4C[C@@H]3CCO3)cc12` [Compound 81], the concentration for a half-maximal effect (EC50) worked out at 14.5 nM. In turn, `N#Cc1n[nH]c2ccc(NC(=O)c3ccc4c(c3)nc(CN3CCC(c5cccc(OCc6ccc(Cl)cc6F)n5)CC3)n4C[C@@H]3CCO3)cc12` [Compound 82] had an EC50 of 116 nM. In the case of `CC(C)c1n[nH]c2ccc(NC(=O)c3ccc4c(c3)nc(CN3CCC(c5cccc(OCc6ccc(Cl)cc6F)n5)CC3)n4C[C@@H]3CCO3)cc12` [Compound 83], the response was half-maximal at 3.76 nM (EC50).

With `O=C(Nc1ccc2[nH]c(=O)cnc2c1)c1ccc2c(c1)nc(CN1CCC(c3cccc(OCc4ccc(Cl)cc4F)n3)CC1)n2C[C@@H]1CCO1` [Compound 84], the 50% effective concentration (EC50) stood at 17.9 nM.

`O=C(Nc1ccc2c(c1)C1(CC1)C(=O)N2)c1ccc2c(c1)nc(CN1CCC(c3cccc(OCc4ccc(Cl)cc4F)n3)CC1)n2C[C@@H]1CCO1` [Compound 86] yielded an EC50 of 0.75 nM. On to `O=C(Nc1ccc2[nH]ncc2c1)c1ccc2c(c1)nc(CN1CCC(c3cccc(OCc4ccc(Cl)cc4F)n3)CC1)n2C[C@@H]1CCO1` [Compound 87], for which the EC50 was found to be 10.1 nM. `O=C(Nc1ncc2[nH]cnc2n1)c1ccc2c(c1)nc(CN1CCC(c3cccc(OCc4ccc(Cl)cc4F)n3)CC1)n2C[C@@H]1CCO1` [Compound 89] registered a concentration for a half-maximal effect (EC50) of 87.8 nM. For `Cn1c(=O)[nH]c2ccc(NC(=O)c3ccc4c(c3)nc(CN3CCC(c5cccc(OCc6ccc(Cl)cc6F)n5)CC3)n4C[C@@H]3CCO3)cc21` [Compound 91], a half-maximal response (EC50) required 26.2 nM. This EC50 is about 3.4-fold lower than that of the compound before. In the case of `O=C(Nc1cc2[nH]c(=O)[nH]c2cc1F)c1ccc2c(c1)nc(CN1CCC(c3cccc(OCc4ccc(Cl)cc4F)n3)CC1)n2C[C@@H]1CCO1` [Compound 92] it was 18.6 nM; in that of `O=C(Nc1ccc2[nH]c(=O)[nH]c2n1)c1ccc2c(c1)nc(CN1CCC(c3cccc(OCc4ccc(Cl)cc4F)n3)CC1)n2C[C@@H]1CCO1` [Compound 93], 29.8 nM; in that of `Cc1n[nH]c2cc(NC(=O)c3ccc4c(c3)nc(CN3CCC(c5cccc(OCc6ccc(Cl)cc6F)n5)CC3)n4C[C@@H]3CCO3)ccc12` [Compound 94], 372 nM.

In turn, `Cc1nc2ccc(NC(=O)c3ccc4c(c3)nc(CN3CCC(c5cccc(OCc6ccc(Cl)cc6F)n5)CC3)n4C[C@@H]3CCO3)cc2s1` [Compound 95] had an EC50 of 62 nM. `O=C(Nc1ccn2nccc2c1)c1ccc2c(c1)nc(CN1CCC(c3cccc(OCc4ccc(Cl)cc4F)n3)CC1)n2CC1CCO1` (centres unmarked) [Compound 96] registered an EC50 of 74.3 nM. For `O=C(Nc1ccn2ncc(Cl)c2c1)c1ccc2c(c1)nc(CN1CCC(c3cccc(OCc4ccc(Cl)cc4F)n3)CC1)n2CC1CCO1` (centres unmarked) [Compound 97], the EC50 came to 140 nM.

Turning to `O=C(Nc1ccc2ncsc2c1)c1ccc2c(c1)nc(CN1CCC(c3cccc(OCc4ccc(Cl)cc4F)n3)CC1)n2C[C@@H]1CCO1` [Compound 98], the EC50 was 16.9 nM. Compared with the last compound, the EC50 is about 8.3-fold lower. `Cn1cc2cc(NC(=O)c3ccc4c(c3)nc(CN3CCC(c5cccc(OCc6ccc(Cl)cc6F)n5)CC3)n4C[C@@H]3CCO3)ccc2n1` [Compound 99]: the concentration for a half-maximal effect (EC50) came out at 42.4 nM. With `O=C(Nc1cc(F)c2[nH]ncc2c1)c1ccc2c(c1)nc(CN1CCC(c3cccc(OCc4ccc(Cl)cc4F)n3)CC1)n2C[C@@H]1CCO1` [Compound 102] the figure was 1.33 nM. As for `O=C(Nc1cc(F)c2c(c1)C1(CC1)C(=O)N2)c1ccc2c(c1)nc(CN1CCC(c3cccc(OCc4ccc(Cl)cc4F)n3)CC1)n2C[C@@H]1CCO1` [Compound 104], the EC50 was determined as 1.05 nM. With `Cc1n[nH]c2c(C(F)(F)F)cc(NC(=O)c3ccc4c(c3)nc(CN3CCC(c5cccc(OCc6ccc(Cl)cc6F)n5)CC3)n4C[C@@H]3CCO3)cc12` [Compound 106] the figure was 2.31 nM; with `O=C(Nc1cc(C(F)(F)F)c2c(c1)C1(CC1)C(=O)N2)c1ccc2c(c1)nc(CN1CCC(c3cccc(OCc4ccc(Cl)cc4F)n3)CC1)n2C[C@@H]1CCO1` [Compound 107], 1.83 nM; with `O=C(Nc1cc(C(F)(F)F)c2[nH]ncc2c1)c1ccc2c(c1)nc(CN1CCC(c3cccc(OCc4ccc(Cl)cc4F)n3)CC1)n2C[C@@H]1CCO1` [Compound 108], 2.39 nM. Compound `Cc1nn(C)c2ccc(NC(=O)c3ccc4c(c3)nc(CN3CCC(c5cccc(OCc6ccc(Cl)cc6F)n5)CC3)n4C[C@@H]3CCO3)cc12` [Compound 109] had an EC50 of 47 nM. This EC50 is about 20-fold higher than that of the compound before. In turn, `Cc1n[nH]c2c(Cl)cc(NC(=O)c3ccc4c(c3)nc(CN3CCC(c5cccc(OCc6ccc(Cl)cc6F)n5)CC3)n4C[C@@H]3CCO3)cc12` [Compound 110] returned a concentration for a half-maximal effect (EC50) of 4.45 nM. This EC50 lies about 11-fold lower than the previous one. For `O=C(Nc1ccc2[nH]nc(C(F)(F)F)c2c1)c1ccc2c(c1)nc(CN1CCC(c3cccc(OCc4ccc(Cl)cc4F)n3)CC1)n2C[C@@H]1CCO1` [Compound 111], the 50% effective concentration (EC50) was found to be 2.34 nM. In the case of `O=C(Nc1ccc2[nH]nc(C3CC3)c2c1)c1ccc2c(c1)nc(CN1CCC(c3cccc(OCc4ccc(Cl)cc4F)n3)CC1)n2C[C@@H]1CCO1` [Compound 112], the EC50 amounted to 6.18 nM. In the case of `O=C(Nc1cc(C(F)(F)F)c2[nH]nc(C3CC3)c2c1)c1ccc2c(c1)nc(CN1CCC(c3cccc(OCc4ccc(Cl)cc4F)n3)CC1)n2C[C@@H]1CCO1` [Compound 113], the half-maximal effective concentration (EC50) was 4.38 nM. Consider `Cc1cc(NC(=O)c2ccc3c(c2)nc(CN2CCC(c4cccc(OCc5ccc(Cl)cc5F)n4)CC2)n3C[C@@H]2CCO2)cc2c(C3CC3)n[nH]c12` [Compound 114], for which the EC50 amounted to 1.04 nM. As to `O=C(Nc1ccc2[nH]nc(C(F)F)c2c1)c1ccc2c(c1)nc(CN1CCC(c3cccc(OCc4ccc(Cl)cc4F)n3)CC1)n2C[C@@H]1CCO1` [Compound 115], the concentration for a half-maximal effect (EC50) was found to be 0.87 nM. The compound `Cc1cc(NC(=O)c2ccc3c(c2)nc(CN2CCC(c4cccc(OCc5ccc(Cl)cc5F)n4)CC2)n3C[C@@H]2CCO2)cc2c(C(F)F)n[nH]c12` [Compound 116] returned a concentration giving a half-maximal response (EC50) of 0.92 nM. Turning to `CCc1cc(NC(=O)c2ccc3c(c2)nc(CN2CCC(c4cccc(OCc5ccc(Cl)cc5F)n4)CC2)n3C[C@@H]2CCO2)cc2c(C)n[nH]c12` [Compound 117], the half-maximal effective concentration (EC50) turned out to be 10.2 nM.

In turn, `Cc1n[nH]c2c(C3CC3)cc(NC(=O)c3ccc4c(c3)nc(CN3CCC(c5cccc(OCc6ccc(Cl)cc6F)n5)CC3)n4C[C@@H]3CCO3)cc12` [Compound 118] displayed an EC50 of 8.31 nM. The compound `Cc1n[nH]c2c(C(F)F)cc(NC(=O)c3ccc4c(c3)nc(CN3CCC(c5cccc(OCc6ccc(Cl)cc6F)n5)CC3)n4C[C@@H]3CCO3)cc12` [Compound 119] showed an EC50 of 0.63 nM.

In turn, `Cc1cc(NC(=O)c2ccc3c(c2)nc(CN2CCC(c4cccc(OCc5ccc(Cl)cc5F)n4)CC2)n3C[C@@H]2CCO2)c(C)c2c(C)n[nH]c12` [Compound 120] displayed a half-maximal effective concentration (EC50) of 15.3 nM.

Regarding `Cc1cc(NC(=O)c2ccc3c(c2)nc(CN2CCC(c4cccc(OCc5ccc(Cl)cc5F)n4)CC2)n3C[C@@H]2CCO2)c(F)c2c(C)n[nH]c12` [Compound 121], the 50% effective concentration (EC50) was determined as 4.23 nM. In the case of `Cc1n[nH]c2ccc(NC(=O)c3ccc4c(c3)nc(CN3CCC(c5cccc(OCc6ccc(Cl)cc6F)n5)CC3)n4C[C@@H]3CCO3)c(F)c12` [Compound 122] it was 3.21 nM; in that of `Cc1n[nH]c2cc(F)c(NC(=O)c3ccc4c(c3)nc(CN3CCC(c5cccc(OCc6ccc(Cl)cc6F)n5)CC3)n4C[C@@H]3CCO3)cc12` [Compound 123], 5.49 nM. With `Cc1cc(NC(=O)c2ccc3c(c2)nc(CN2CCC(c4cccc(OCc5ccc(C#N)cc5F)n4)CC2)n3C[C@@H]2CCO2)cc2c1NC(=O)C21CC1` [Compound 124], the EC50 was determined as 0.17 nM. As for `N#Cc1ccc(COc2cccc(C3CCN(Cc4nc5cc(C(=O)Nc6cc(F)c7c(c6)C6(CC6)C(=O)N7)ccc5n4C[C@@H]4CCO4)CC3)n2)c(F)c1` [Compound 125], the concentration giving a half-maximal response (EC50) was found to be 0.55 nM.

As to `N#Cc1ccc(COc2cccc(C3CCN(Cc4nc5cc(C(=O)Nc6ccc7c(c6)C6(CC6)C(=O)N7)ccc5n4C[C@@H]4CCO4)CC3)n2)c(F)c1` [Compound 128], the EC50 came to 0.3 nM. Compared with the last compound, the EC50 is about 1.8-fold lower. In the case of `N#Cc1ccc(COc2cccc(C3CCN(Cc4nc5cc(C(=O)Nc6cc(F)c7[nH]ncc7c6)ccc5n4C[C@@H]4CCO4)CC3)n2)c(F)c1` [Compound 129] it was 1.14 nM.
